In PubChem BioAssay AID651630 (Sanford-Burnham Center for Chemical Genomics, 2012):
The source made the active and inactive calls.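 The calls were made as follows: active = lipid-stain IC50 at or below a set limit, with nuclear-stain toxicity IC50 at least five times higher; inactive = the rest.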

What was measured:
[1] = test system: DAPI; test: triacylglycerol accumulation inhibitor potency, dose response, cell-based, panel, Nile Red and DAPI fluorescence, H9c2 (AID 651630); conditions: H9c2 cells, DAPI nuclear fluorescence (cytotoxicity counter-readout), oleic acid;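 also: cells exposed to compound overnight before fixation and staining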
[2] = test system: TAG; test: as above; conditions: H9c2 cells, Nile Red TAG fluorescence, oleic acid

SMILES | IC50 cytotoxicity (DAPI nuclear signal decrease) ([1]; mean of runs) | IC50 cytotoxicity (DAPI nuclear signal decrease) ([1]; run 1) [µM] | IC50 cytotoxicity (DAPI nuclear signal decrease) ([1]; run 2) [µM] | IC50 ([2]; mean of runs) | IC50 ([2]; run 1) [µM] | IC50 ([2]; run 2) [µM]
Cc1ccc2nc(NC(=O)CN(C)S(=O)(=O)c3cccc4nsnc34)sc2c1 | > 25 µM (inactive) | > 25 | > 25 | 10.5 µM | 11.1 | 9.95
CCc1cc2c3c(c1)C1(C(=O)N3C(C)(C)C=C2C)C(C#N)=C(N)Oc2[nH]c(=O)[nH]c(=O)c21 (stereo unspecified) | > 25 µM (inactive) | > 25 | > 25 | > 25 µM (inactive) | > 25 | > 25
COC(=O)/C=C/c1ccccc1S(=O)(=O)N(Cc1ccccc1)Cc1ccco1 | > 25 µM (inactive) | > 25 | > 25 | > 25 µM (inactive) | > 25 | > 25
Cc1ccc(-c2nn3c(C)nnc3c3ccccc23)cc1S(=O)(=O)NC(C)c1ccccc1 (stereo unspecified) | > 25 µM (inactive) | > 25 | > 25 | 19.7 µM (inactive) | 18.7 | 20.6
CCOCCC(=O)Nc1ccc2c(c1)c(=O)n(C)n2C/C=C/c1ccccc1 | > 25 µM (inactive) | > 25 | > 25 | > 25 µM (inactive) | > 25 | > 25
C#CCN(C[C@@H]1[C@@H](OC(=O)NCc2ccco2)[C@@H](OC(=O)NCc2ccco2)CN(C(=O)OC(C)C)N1C(=O)OC(C)C)S(=O)(=O)c1ccc(C)cc1 | – | 16.5 | > 25 | 15.1 µM (inactive) | 16.2 | 14
Cc1cc(NC(=O)CSc2nc(-c3cccs3)nc3ccccc23)no1 | > 25 µM (inactive) | > 25 | > 25 | 17.5 µM (inactive) | 14.4 | 20.6
NC(Cc1ccc(F)cc1)c1csc(Nc2ccc(C(F)(F)F)cn2)n1 (stereo unspecified) | – | > 25 | 23.8 | – | > 25 | 8.35
CN(Cc1ccccc1)C(=O)c1ccc(Nc2nc(C(N)Cc3ccccc3)cs2)nc1 (stereo unspecified) | > 25 µM (inactive) | > 25 | > 25 | – | 20.9 | > 25
CCCCCOc1ccc(NC(=O)CSc2cccc3cccnc23)cc1 | > 25 µM (inactive) | > 25 | > 25 | > 25 µM (inactive) | > 25 | > 25
Cc1[nH]c2ccccc2c1C(c1ccccn1)N1CCC(C)CC1 (stereo unspecified) | 21.8 µM (inactive) | 21.2 | 22.4 | 15.5 µM (inactive) | 14.8 | 16.2
Cc1ccc(/C=N/NC(=O)c2c(C)nc3ccc(Br)cn23)cc1 | > 25 µM (inactive) | > 25 | > 25 | > 25 µM (inactive) | > 25 | > 25
Cc1ccc2c(c1)-c1c(cnn1CC(=O)Nc1ccccc1N1CCN(C)CC1)CO2 | > 25 µM (inactive) | > 25 | > 25 | – | 24.2 | > 25
C[C@H](CO)N1C[C@H](C)[C@@H](CN(C)Cc2ccc(-c3ccccc3)cc2)Oc2c(NC(=O)Cc3ccccc3)cccc2C1=O | > 25 µM (inactive) | > 25 | > 25 | 11.3 µM | 12.4 | 10.2
CNC(=O)c1ccc(-c2sc3nc(N4CCOCC4)c4c(c3c2N)CCCC4)o1 | > 25 µM (inactive) | > 25 | > 25 | 6.57 µM | 5.49 | 7.64
C[C@@H]1CN([C@@H](C)CO)C(=O)c2cccc(NC(=O)Nc3ccc(F)cc3)c2O[C@@H]1CN(C)Cc1ccc(Oc2ccccc2)cc1 | – | > 25 | > 25 | 1.42 µM | 1.71 | 1.14
CCOC(=O)c1cc(-c2ccccc2)sc1NC(=O)COC(=O)c1cccc(S(N)(=O)=O)c1 | > 25 µM (inactive) | > 25 | > 25 | – | > 25 | 21.4

SMILES | IC50 cytotoxicity (DAPI nuclear signal decrease) ([1]; mean of runs) | IC50 cytotoxicity (DAPI nuclear signal decrease) ([1]; run 1) [µM] | IC50 cytotoxicity (DAPI nuclear signal decrease) ([1]; run 2) [µM] | IC50 ([2]; mean of runs) | IC50 ([2]; run 1) [µM] | IC50 ([2]; run 2) [µM]
NC(=O)N/N=C/c1c(Sc2nnnn2-c2ccccc2)nc2ccccn2c1=O | 17.2 µM (inactive) | 15.7 | 18.7 | 10.7 µM | 15.3 | 6.11
CCCCOc1ccccc1C1CC(=O)NC2=C1C(=O)CCC2 (stereo unspecified) | > 25 µM (inactive) | > 25 | > 25 | 15.9 µM (inactive) | 9.56 | 22.3
CCCSc1nc(SCC(=O)NCc2ccccc2)c2c3c(sc2n1)COC(C)(CC)C3 (stereo unspecified) | > 25 µM (inactive) | > 25 | > 25 | > 25 µM (inactive) | > 25 | > 25
O=C(Nc1ccc(-c2csc(Nc3cccc(C(F)(F)F)c3)n2)cc1)c1cccc(C(F)(F)F)c1 | > 25 µM (inactive) | > 25 | > 25 | 6.44 µM | 5.94 | 6.94
CCC(=O)Nc1ccc(-c2nnc(-c3ccccc3)o2)cc1 | > 25 µM (inactive) | > 25 | > 25 | > 25 µM (inactive) | > 25 | > 25
N#CCC(=O)N/N=C/c1cn(Cc2ccc(Cl)c(Cl)c2)c2ccccc12 | > 25 µM (inactive) | > 25 | > 25 | – | 19.9 | > 25
C[C@@H]1CN([C@H](C)CO)C(=O)c2cccc(NC(=O)Nc3ccc(C(F)(F)F)cc3)c2O[C@H]1CN(C)S(=O)(=O)c1cccs1 | > 25 µM (inactive) | > 25 | > 25 | 15.9 µM (inactive) | 13.8 | 18
O=C(C[C@H]1C[C@H](C(=O)N2CCOCC2)[C@@]2(CCC3CCCC3)c3[nH]c4cc(-c5ccco5)ccc4c3CCN2C1=O)NCC12CC3CC(CC(C3)C1)C2 | – | > 25 | > 25 | 3.68 µM | 4.04 | 3.32
COc1cccc(C2c3cc4c(cc3OC(NNC(N)=O)C2C)OCO4)c1O (stereo unspecified) | > 25 µM (inactive) | > 25 | > 25 | > 25 µM (inactive) | > 25 | > 25
COc1ccccc1NC(=O)N1CCC(c2nc3cc(C)c(C)cc3[nH]2)CC1 | > 25 µM (inactive) | > 25 | > 25 | > 25 µM (inactive) | > 25 | > 25
COCCNc1nc(NCc2ccc(NC(C)=O)cc2)c2sc(-c3ccccc3)cc2n1 | – | 19.1 | > 25 | > 25 µM (inactive) | > 25 | > 25
COc1ccc2[nH]c3c(c2c1)CCN1C(=O)C(CC(=O)NCC24CC5CC(CC(C5)C2)C4)C[C@H](C(=O)N2CCOCC2)[C@@]31CCC1CCCC1 (stereo partly specified) | > 25 µM (inactive) | > 25 | > 25 | – | 4.99 | > 25
N#C/C(=C\c1cc([N+](=O)[O-])c(N2CCCCC2)cc1N1CCCCC1)c1nn(-c2ccccc2)c(N)c1C#N | > 25 µM (inactive) | > 25 | > 25 | > 25 µM (inactive) | > 25 | > 25
COc1ccc(N=C2C(=Nc3ccc(OC)cc3)N(c3ccc(OC)cc3)C(=S)N2C(=O)c2ccc(OC)cc2)cc1 | – | > 25 | > 25 | < 0.78 µM | < 0.78 | < 0.78
Cn1cc(CN2CCC(C(=O)NC(c3ccc(F)cc3)c3ccc4ccccc4n3)CC2)c2ccccc21 (stereo unspecified) | 13.7 µM (inactive) | 14.5 | 13 | 10.3 µM | 9.38 | 11.2
CCN(C[C@H]1N[C@@](CC)(C(=O)OC)[C@H]2C(=O)N(Cc3ccccc3)C(=O)[C@@H]12)S(=O)(=O)c1ccc(C(C)(C)C)cc1 | > 25 µM (inactive) | > 25 | > 25 | 10 µM | 10.5 | 9.54
